Measured values taken from US7153958B2, “Farnesyl transferase inhibiting benzoheterocyclic derivatives” (Janssen Pharmaceutica N.V., priority 2000, dated 2006).

| SMILES | melting point [°C] |
| --- | --- |
| CN1C(=O)CSC(c2cccc(Cl)c2)c2cc(C(N)(c3ccc(Cl)cc3)c3cncn3C)ccc21 (stereo not drawn) | 218 |
| Cn1cncc1C(N)(c1ccc(Cl)cc1)c1ccc2c(c1)C(c1cccc(Cl)c1)=NCc1nnnn1-2 (stereo not drawn) | 218 |
| Cn1cncc1C(O)(c1ccc(Cl)cc1)c1ccc2c(c1)C(c1cccc(Cl)c1)SCc1nnnn1-2 (stereo not drawn) | 217 |
| Cn1cncc1C(c1ccc(Cl)cc1)c1ccc2c(c1)C(c1cccc(Cl)c1)SCc1nnnn1-2 (stereo not drawn) | 162 |
| Cn1cncc1C(O)(c1ccc(Cl)cc1)c1ccc2c(c1)C(c1cccc(Cl)c1)SCC(=O)N2 (stereo not drawn) | 210 |
| Cn1cncc1C(O)(c1ccc(Cl)cc1)c1ccc2c(c1)C(c1cccc(Cl)c1)SCC(=O)N2CC1CC1 (stereo not drawn) | 245 |
| CN1C(=O)CSC(c2cccc(Cl)c2)c2cc(C(O)(c3ccc(Cl)cc3)c3cncn3C)ccc21 (stereo not drawn) | 186 |
| Cn1cncc1C(O)(c1ccc(Cl)cc1)c1ccc2c(c1)C(c1cccc(Cl)c1)=NCc1nnnn1-2 (stereo not drawn) | 240 |
| Cn1cncc1C(O)(c1ccc(Cl)cc1)c1ccc2c(c1)C(c1cccc(Cl)c1)OCC(=O)N2 (stereo not drawn) [Example B1, 5-(3-chlorophenyl)-7-[(4-chlorophenyl)hydroxy(1-methyl-1H-imidazol-5-yl)methyl]-1,5-dihydro-4,1-benzoxazepin-2(3H)-one] | 260 |
| CN1C(=O)COC(c2cccc(Cl)c2)c2cc(C(O)(c3ccc(Cl)cc3)c3cncn3C)ccc21 (stereo not drawn) [Example B3, 5-(3-chlorophenyl)-7-[(4-chlorophenyl)hydroxy(1-methyl-1H-imidazol-5-yl)methyl]-1,5-dihydro-1-methyl-4,1-benzoxazepin-2(3H)-one] | 160 |
| CN1C(=O)CNC(c2cccc(Cl)c2)c2cc(C(O)(c3ccc(Cl)cc3)c3cncn3C)ccc21 (stereo not drawn) [Example B5, 5-(3-chlorophenyl)-7-[(4-chlorophenyl)hydroxy(1-methyl-1H-imidazol-5-yl)methyl]-1,3,4,5-tetrahydro-1-methyl-2H-1,4-benzodiazepin-2-one] | 208 |
| Cn1cncc1C(O)(c1ccc(Cl)cc1)c1ccc2c(c1)C(c1cccc(Cl)c1)OCC(=S)N2 (stereo not drawn) [Example B7, 5-(3-chlorophenyl)-7-[(4-chlorophenyl)hydroxy(1-methyl-1H-imidazol-5-yl)methyl]-1,5-dihydro-4,1-benzoxazepine-2(3H)-thione] | > 300 |

More lines, now with the values ahead:

| melting point [°C] | SMILES |
| --- | --- |
| 213 | CN1C(=O)CN=C(c2cccc(Cl)c2)c2cc(C(N)(c3ccc(Cl)cc3)c3cncn3C)ccc21 (stereo not drawn) |
| 187 | Cn1cncc1C(c1ccc(Cl)cc1)c1ccc2c(c1)C(c1cccc(Cl)c1)SCC(=O)N2 (stereo not drawn) |
| 199 | Cn1cncc1C(c1ccc(Cl)cc1)c1ccc2c(c1)C(c1cccc(Cl)c1)SCCC(=O)N2 (stereo not drawn) |
| 200 | Cn1cncc1C(O)(c1ccc(Cl)cc1)c1ccc2c(c1)C(c1cccc(Cl)c1)=NCC(=O)N2 (stereo not drawn) |
| 226 | CN1C(=O)CN=C(c2cccc(Cl)c2)c2cc(C(O)(c3ccc(Cl)cc3)c3cncn3C)ccc21 (stereo not drawn) |
| 144 | O=C1CN=C(c2ccccc2)c2cc(C(c3ccc(Cl)cc3)n3ccnc3)ccc2N1 (racemic) |
